Measured values: patent US7087648B1, “Methods for modulating macrophage proliferation using polyamine analogs” (The Regents of the University of California, priority 1997, dated 2006)

Experiments:
[1] = tested on: spermidine-spermine N1-acetyltransferase (SSAT); conditions: human melanoma cells; cited from earlier work
[2] = tested on: CD14^+/PCNA^+ peripheral blood macrophage; test: In vitro CD14/PCNA staining (FACSCAN) of PBMC from AIDS dementia patients cultured five days with agent; type: cell-based, human; conditions: for inhibition and/or killing of blood PCNA^+/CD14^+ cells: summary of the data shown; for effect on macrophage proliferation: blood of one patient with AIDS dementia, Table 2; for CD14^+, PCNA^+ / TOTAL CD14/PCNA: one patient with AIDS dementia; for CD14^+, PCNA^+: 0 drug: 64/5000; for TOTAL CD14/PCNA: 0 drug: 388; for CD14^+/PCNA^+ / CD14^+/PCNA^− / total CD14: HIV dementia patient five; for CD14^+/PCNA^+: 0 drug: 74; for CD14^+/PCNA^−: 0 drug: 472; for total CD14: 0 drug: 546
Description: We had previously separated peripheral blood monocytes on Ficoll. […] We then used Percoll gradient separation, which allows for denser cells to be captured. A two-step gradient was prepared in 15 mL conical tubes: bottom layer of 1.087 density Percoll, overlaid with 1.077 density. 1.5 mL whole heparinised blood was mixed with an equal volume of isotonic saline. This blood/saline was layered over the gradient and centrifuged. Cells from the 1.077 and 1.087 interfaces were collected, combined, and washed in 5 volumes of RPMI 1640. […] All further experiments were performed using 1.087 gradient.
Five×10^5 PBMC's isolated through a 1.087 g/cc Percoll/saline gradient were exposed to varied concentrations of agent after baseline CD14/PCNA staining was performed. The cells were cultured at 5×10^5 cells in RPM1-1640/10% fetal calf serum in a polypropylene tube (Falcon) at 37° C. for five days. After five days CD14/PCNA staining was performed on control and agent-treated cultures. FACSCAN analysis of PCNA-positive cells in control cultures was compared with agent-treated cultures and the percentage of control PCNA/CD14 cells was calculated. The results of such an experiment in which the effect of polyamine analog DEHOP (SunPharm; Florida) on proliferating macrophages (as detected by PCNA) from the blood of four patients with AIDS dementia are shown in FIG. 1A (with underlying data provided in Table 3). […] A comparison of the inhibitory effect of DEHOP and cyclosphosphamide, another anti-proliferative agent, was performed in vitro using the blood of one of these patients (“CB”).

[3] = tested on: human brain tumor cell lines; conditions: cited from earlier work
[4] = tested on: CD14^+/PCNA^+ peripheral blood macrophage; test: In vitro CD14/PCNA staining (FACSCAN) of PBMC from AIDS dementia patients cultured five days with agent; type: cell-based, human; conditions: one patient with AIDS dementia, 0 drug: 35/5000
PCNA^+ macrophage = test: Inhibition of PCNA^+ macrophage detection, peripheral blood of HIV^+ sarcoid patient; type: cell-based, human; conditions: 60% of input CD14 cells PCNA^+, 96 hr after drug exposure and culture, FIG. 5
Description: Five×10^5 PBMC's isolated through a 1.087 g/cc Percoll/saline gradient were exposed to varied concentrations of agent after baseline CD14/PCNA staining was performed. […] FACSCAN analysis of PCNA-positive cells in control cultures was compared with agent-treated cultures and the percentage of control PCNA/CD14 cells was calculated.

PCNA/CD14 cells = test: PCNA expression of peripheral macrophages (CD14 cells) from patients with AD, five days culture with agent; type: cell-based, human; conditions: FIG. 3
Description: We had previously separated peripheral blood monocytes on Ficoll. […] We then used Percoll gradient separation, which allows for denser cells to be captured. A two-step gradient was prepared in 15 mL conical tubes: bottom layer of 1.087 density Percoll, overlaid with 1.077 density. 1.5 mL whole heparinised blood was mixed with an equal volume of isotonic saline. This blood/saline was layered over the gradient and centrifuged. Cells from the 1.077 and 1.087 interfaces were collected combined, and washed in 5 volumes of RPMI 1640.
Five×10^5 PBMC's isolated through a 1.087 g/cc Percoll/saline gradient were exposed to varied concentrations of agent after baseline CD14/PCNA staining was performed as described in Example 3. The cells were cultured at 5×1O^5 cells in RPM1-1640/10% fetal calf serum in a polypropylene tube (Falcon) at 37° C. for five days. After five days CDI 14/PCNA staining was performed on control and agent-treated cultures. FACSCAN analysis of PCNA-positive cells in control cultures was compared with agent-treated cultures and percentage of control PCNA/CD14 cells was calculated. Two polyamine analogs, DENOP (SunPharm; Florida) and SL-11037 were tested.

Structure (SMILES)	inhibition and/or killing of blood PCNA^+/CD14^+ cells [2]	effect on macrophage proliferation [2]	CD14^+, PCNA^+ ([2]; 2 μM)	TOTAL CD14/PCNA ([2]; 2 μM)	CD14^+, PCNA^+ ([2]; 10 μM)	TOTAL CD14/PCNA ([2]; 10 μM)	CD14^+, PCNA^+ ([2]; 50 μM)	TOTAL CD14/PCNA ([2]; 50 μM)	CD14^+, CD69^+ ([4]; 2 μM)	CD14^+, CD69^+ ([4]; 10 μM)	CD14^+, CD69^+ ([4]; 50 μM)	other results
NCCCNCCCCNCCCN [spermine]												increase in immunodetectable SSAT protein [1]: ~7 fold; increase of SSAT mRNA levels [1]: ~3 fold
CCNCCCNCCCNCCCNCC [DENSPM, 1,1 1-diethylnorspermine]												increase in immunodetectable SSAT protein [1]: 300 fold; increase of SSAT mRNA levels [1]: up to 20 fold
CCNCCCCNCCCCNCCCCNCCCCNCC [BE-4444, 1,19-bis(ethylamino)-5,10,15-triazanonadecane]	potent inhibition and/or killing											killing of PCNA^+/CD14^+ cells ([2]; FIG. 1B): potent killing; growth, survival, and cell cycle progression [3]: directly affects growth, survival, and cell cycle progression
CCNCCCNC[C@@H]1CC[C@H]1CNCCCNCC.Cl.Cl.Cl.Cl (relative stereo) [SL-11038, N-ethyl-N′-(2-(3′-ethylamino-propylaminomethyl)-trans-cyclobutylmethyl)-propane 1; 3-diamine tetrahydrochloride]	potent inhibition and/or killing	showed inhibitory effects	104/ NO. OF CELLS/5,000	356 NO. OF CELLS/5,000	36/ NO. OF CELLS/5,000	205 NO. OF CELLS/5,000	24/ NO. OF CELLS/5,000	104 NO. OF CELLS/5,000	32/ NO. OF CELLS/5,000	32/ NO. OF CELLS/5,000	26/ NO. OF CELLS/5,000	
CCNCCCNC[C@@H]1C[C@H]1CNCCCNCC.Cl.Cl.Cl.Cl (relative stereo) [SL-11044, N-ethyl-N′-(2-(3′-ethylamino-propylaminomethyl)-trans-cyclopropylmethyl)-propane 1,3-diamine tetrahydrochloride]	potent inhibition and/or killing											inhibition of PCNA^+ macrophage detection (PCNA^+ macrophage): potent inhibitors
CCNCCCNC/C=C\CNCCCNCC.Cl.Cl.Cl.Cl [SL-11047, N,N′-bis(3-ethylaminopropyl)-cis-but-2-ene-1,4-diamine tetrahydrochloride]	potent inhibition and/or killing											PCNA^+/CD14 cell survival ([2]; FIG. 6, averages of several (N) experiments): decrease; inhibition of PCNA^+ macrophage detection (PCNA^+ macrophage): potent inhibitors
CCNCCCNC[C@@H]1C[C@@H]1CNCCCNCC.Cl.Cl.Cl.Cl [SL-11037, N-ethyl-N′-(2-(3′-ethylamino-propylaminomethyl)-cis-cyclopropylmethyl)-propane 1,3-diamine tetrahydrochloride]	potent inhibition and/or killing	showed inhibitory effects	49/ NO. OF CELLS/5,000	276 NO. OF CELLS/5,000	32/ NO. OF CELLS/5,000	116 NO. OF CELLS/5,000	11/ NO. OF CELLS/5,000	79 NO. OF CELLS/5,000	46/ NO. OF CELLS/5,000	49/ NO. OF CELLS/5,000	33/ NO. OF CELLS/5,000	percentage of proliferating macrophages (PCNA/CD14 cells) (PCNA/CD14 cells): significantly reduced the percentage of proliferating macrophages
O=P1(N(CCCl)CCCl)NCCCO1 (stereo not drawn) [Cyclophosphamide, reference compound]												CD14^+/PCNA^+ ([2]; 5 μg/ml): 70 #cells/10,000 PBMC; CD14^+/PCNA^− ([2]; 5 μg/ml): 272 #cells/10,000 PBMC; total CD14 ([2]; 5 μg/ml): 342 #cells/10,000 PBMC; CD14^+/PCNA^+ ([2]; 0.005 (μg/ml)): 71 #cells/10,000 PBMC; CD14^+/PCNA^− ([2]; 0.005 (μg/ml)): 295 #cells/10,000 PBMC; total CD14 ([2]; 0.005 (μg/ml)): 366 #cells/10,000 PBMC; CD14^+/PCNA^+ ([2]; 0.05 (μg/ml)): 99 #cells/10,000 PBMC; CD14^+/PCNA^− ([2]; 0.05 (μg/ml)): 455 #cells/10,000 PBMC; total CD14 ([2]; 0.05 (μg/ml)): 554 #cells/10,000 PBMC; CD14^+/PCNA^+ ([2]; 0.5 (μg/ml)): 49 #cells/10,000 PBMC; CD14^+/PCNA^− ([2]; 0.5 (μg/ml)): 390 #cells/10,000 PBMC; total CD14 ([2]; 0.5 (μg/ml)): 439 #cells/10,000 PBMC; in vitro toxicity in this assay system ([2]; blood of patient five): lack of in vitro toxicity
CCNCCCNCCCNCCCNCC [DENOP, diethyl-norspermine]	potent inhibition and/or killing	showed inhibitory effects	34/ NO. OF CELLS/5,000	149 NO. OF CELLS/5,000	23/ NO. OF CELLS/5,000	50 NO. OF CELLS/5,000	19/ NO. OF CELLS/5,000	43 NO. OF CELLS/5,000	32/ NO. OF CELLS/5,000	23/ NO. OF CELLS/5,000	32/ NO. OF CELLS/5,000	percentage of proliferating macrophages (PCNA/CD14 cells) (PCNA/CD14 cells): significantly reduced the percentage of proliferating macrophages
